Data published in patent US9546173B2 (Novartis AG, priority 2012, dated 2017).
Read-outs that look alike come from different tables or passages of the source.

What was measured:
activated ERK2 = activated ERK2 (Homo sapiens (Human), UniProt P28482); assay: Activated ERK2 kinase assay (AlphaScreen, ERKtide peptide phosphorylation); format: biochemical; details: 35 μM ATP, 30 min preincubation, read-out: ERK2 IC50
RSK2 = RSK2 (Homo sapiens (Human), UniProt P51812); assay: In vitro inhibition of RSK2; format: biochemical; details: in vitro activity on RSK2; where multiple measurements were made, each value is reported
Description: The following Table 3 lists compounds that were tested for inhibition of RSK; the IC50 values are in micromolar units, and refer to inhibition of RSK1 and RSK2, respectively. Where multiple measurements were made, each value is reported.

[1] = […] ERK2, 200 nM ERKtide peptide

Sequence of activated ERK2 (P28482 whole entry): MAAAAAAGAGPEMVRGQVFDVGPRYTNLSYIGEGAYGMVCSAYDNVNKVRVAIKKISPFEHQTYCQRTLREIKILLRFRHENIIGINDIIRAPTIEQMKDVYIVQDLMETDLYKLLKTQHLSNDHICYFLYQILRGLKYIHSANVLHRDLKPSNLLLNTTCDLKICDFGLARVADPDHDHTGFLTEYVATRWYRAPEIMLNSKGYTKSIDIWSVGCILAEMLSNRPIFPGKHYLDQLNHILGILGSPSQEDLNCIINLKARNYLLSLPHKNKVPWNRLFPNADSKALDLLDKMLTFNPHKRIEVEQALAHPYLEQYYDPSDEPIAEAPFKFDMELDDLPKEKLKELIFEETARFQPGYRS
Sequence of RSK2 (P51812 whole entry, species assumed): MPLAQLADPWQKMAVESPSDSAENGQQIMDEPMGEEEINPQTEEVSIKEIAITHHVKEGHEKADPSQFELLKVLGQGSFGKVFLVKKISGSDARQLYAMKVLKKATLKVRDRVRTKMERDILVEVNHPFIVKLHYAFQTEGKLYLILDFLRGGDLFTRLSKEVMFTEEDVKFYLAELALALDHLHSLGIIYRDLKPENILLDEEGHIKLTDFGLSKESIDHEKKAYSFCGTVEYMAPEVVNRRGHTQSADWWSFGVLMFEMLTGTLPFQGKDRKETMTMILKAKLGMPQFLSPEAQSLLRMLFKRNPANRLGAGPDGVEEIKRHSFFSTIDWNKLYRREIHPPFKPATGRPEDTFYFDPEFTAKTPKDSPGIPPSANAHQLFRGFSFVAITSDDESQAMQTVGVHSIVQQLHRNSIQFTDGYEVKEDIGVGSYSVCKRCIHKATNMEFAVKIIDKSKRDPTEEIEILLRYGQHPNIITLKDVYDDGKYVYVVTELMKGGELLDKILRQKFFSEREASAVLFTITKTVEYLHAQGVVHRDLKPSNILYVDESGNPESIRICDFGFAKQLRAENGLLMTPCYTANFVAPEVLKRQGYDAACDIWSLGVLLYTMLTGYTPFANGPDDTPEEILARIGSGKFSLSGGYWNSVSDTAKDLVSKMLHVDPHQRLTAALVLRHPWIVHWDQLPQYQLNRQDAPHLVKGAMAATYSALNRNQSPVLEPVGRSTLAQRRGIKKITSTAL

SMILES	IC50 (activated ERK2; [1])	also measured
CC1(C)c2cnc(NC3CCOCC3)nc2CN1C(=O)N[C@@H]1CCCN(S(=O)(=O)c2cccc(Cl)c2)C1 [compound 118, (R)-N-(1-((3-chlorophenyl)sulfonyl)piperidin-3-yl)-5,5-dimethyl-2-((tetrahydro-2H-pyran-4-yl)amino)-5H-pyrrolo[3,4-d]pyrimidine-6(7H)-carboxamide]	23 nM	–
CC1(C)c2cnc(NC3CCOCC3)nc2CN1C(=O)N[C@@H]1CCCN(S(=O)(=O)c2ccc(Cl)cc2)C1 [compound 119, (R)-N-(1-((4-chlorophenyl)sulfonyl)piperidin-3-yl)-5,5-dimethyl-2-((tetrahydro-2H-pyran-4-yl)amino)-5H-pyrrolo[3,4-d]pyrimidine-6(7H)-carboxamide]	156 nM	–
CC1(C)c2cnc(NC3CCOCC3)nc2CN1C(=O)NCc1ccc(C(F)(F)F)cc1 [compound 121, 5,5-dimethyl-2-((tetrahydro-2H-pyran-4-yl)amino)-N-(4-(trifluoromethyl)benzyl)-5H-pyrrolo[3,4-d]pyrimidine-6(7H)-carboxamide]	10 nM	–
CC1(C)c2cnc(NC3CCOCC3)nc2CN1C(=O)NCc1ccc(C#N)cc1 [compound 122, N-(4-cyanobenzyl)-5,5-dimethyl-2-((tetrahydro-2H-pyran-4-yl)amino)-5H-pyrrolo[3,4-d]pyrimidine-6(7H)-carboxamide]	38 nM	–
COc1ccc(CNC(=O)N2Cc3nc(NC4CCOCC4)ncc3C2(C)C)cc1 [compound 125, N-(4-methoxybenzyl)-5,5-dimethyl-2-((tetrahydro-2H-pyran-4-yl)amino)-5H-pyrrolo[3,4-d]pyrimidine-6(7H)-carboxamide]	56 nM	–
CC1(C)c2cnc(NC3CCOCC3)nc2CN1C(=O)N[C@H](CO)c1cccc(F)c1 [compound 128, (S)-N-(1-(3-fluorophenyl)-2-hydroxyethyl)-5,5-dimethyl-2-((tetrahydro-2H-pyran-4-yl)amino)-5H-pyrrolo[3,4-d]pyrimidine-6(7H)-carboxamide]	9 nM	–
Cc1ccc(CNC(=O)N2Cc3nc(NC4CCOCC4)ncc3C2(C)C)cc1 [compound 129, 5,5-dimethyl-N-(4-methylbenzyl)-2-((tetrahydro-2H-pyran-4-yl)amino)-5H-pyrrolo[3,4-d]pyrimidine-6(7H)-carboxamide]	21 nM	–
CC1(C)c2cnc(NC3CCOCC3)nc2CN1C(=O)NCc1cccc(S(=O)(=O)C2CC2)c1 [compound 130, N-(3-(cyclopropylsulfonyl)benzyl)-5,5-dimethyl-2-((tetrahydro-2H-pyran-4-yl)amino)-5H-pyrrolo[3,4-d]pyrimidine-6(7H)-carboxamide]	71 nM	–
CC1(C)c2cnc(NC3CCOCC3)nc2CN1C(=O)NCc1ccc(SC(F)(F)F)cc1 [compound 132, 5,5-dimethyl-2-((tetrahydro-2H-pyran-4-yl)amino)-N-(4-((trifluoromethyl)thio)benzyl)-5H-pyrrolo[3,4-d]pyrimidine-6(7H)-carboxamide]	11 nM	–
CC1(C)c2cnc(NC3CCOCC3)nc2CN1C(=O)NCc1cccc(C#N)c1 [compound 135, N-(3-cyanobenzyl)-5,5-dimethyl-2-((tetrahydro-2H-pyran-4-yl)amino)-5H-pyrrolo[3,4-d]pyrimidine-6(7H)-carboxamide]	38 nM	–
C[C@@H](NC(=O)N1Cc2nc(NC3CCOCC3)ncc2C1(C)C)c1ccc(S(C)(=O)=O)cc1 [compound 139, (R)-5,5-dimethyl-N-(1-(4-(methylsulfonyl)phenyl)ethyl)-2-((tetrahydro-2H-pyran-4-yl)amino)-5H-pyrrolo[3,4-d]pyrimidine-6(7H)-carboxamide]	32 nM	–
CN1CCN(C(=O)N2Cc3nc(Nc4ccccc4)ncc3C2(C)C)CC1(C)C [compound 149, (5,5-dimethyl-2-(phenylamino)-5H-pyrrolo[3,4-d]pyrimidin-6(7H)-yl)(3,3,4-trimethylpiperazin-1-yl)methanone]	37700 nM	IC50 (RSK2): 611 nM
C[C@@H](NC(=O)N1Cc2nc(Nc3ccccc3)ncc2C1(C)C)c1ccccc1 [compound 156, (R)-5,5-dimethyl-2-(phenylamino)-N-(1-phenylethyl)-5H-pyrrolo[3,4-d]pyrimidine-6(7H)-carboxamide]	–	IC50 (RSK2): 2570 nM
CN(C)C[C@H](NC(=O)N1Cc2nc(Nc3ccccc3)ncc2C1(C)C)c1ccccc1 [compound 168, (R)-N-(2-(dimethylamino)-1-phenylethyl)-5,5-dimethyl-2-(phenylamino)-5H-pyrrolo[3,4-d]pyrimidine-6(7H)-carboxamide]	–	IC50 (activated ERK2; 0.25 nM ERK2, 200 nM ERKtide peptide): 125000 nM
C[C@H](NC(=O)N1Cc2nc(Nc3ccccc3)ncc2C1(C)C)c1ccccc1 [compound 169, (S)-5,5-dimethyl-2-(phenylamino)-N-(1-phenylethyl)-5H-pyrrolo[3,4-d]pyrimidine-6(7H)-carboxamide]	–	IC50 (RSK2): > 25000 nM
C[C@@H](NC(=O)N1Cc2nc(NC3CCOCC3)ncc2C1C1CC1)c1cccc(Cl)c1 (stereo partly drawn) [compound 171, N-((R)-1-(3-chlorophenyl)ethyl)-5-cyclopropyl-2-((tetrahydro-2H-pyran-4-yl)amino)-5H-pyrrolo[3,4-d]pyrimidine-6(7H)-carboxamide]	343 nM	–
C[C@@H](NC(=O)N1Cc2nc(NC3CCOCC3)ncc2C1C1CC1)c1cccc(Cl)c1 (stereo partly drawn) [compound 172, N-((R)-1-(3-chlorophenyl)ethyl)-5-cyclopropyl-2-((tetrahydro-2H-pyran-4-yl)amino)-5H-pyrrolo[3,4-d]pyrimidine-6(7H)-carboxamide]	146 nM	–

Further lines, with some results ahead:

IC50 (activated ERK2; [1])	SMILES	also measured
158 nM	CC1(C)c2cnc(NC3CCOCC3)nc2CN1C(=O)NCc1ccccc1F [compound 120, N-(2-fluorobenzyl)-5,5-dimethyl-2-((tetrahydro-2H-pyran-4-yl)amino)-5H-pyrrolo[3,4-d]pyrimidine-6(7H)-carboxamide]	–
7 nM	CC1(C)c2cnc(NC3CCOCC3)nc2CN1C(=O)NCc1ccc(Br)cc1 [compound 123, N-(4-bromobenzyl)-5,5-dimethyl-2-((tetrahydro-2H-pyran-4-yl)amino)-5H-pyrrolo[3,4-d]pyrimidine-6(7H)-carboxamide]	–
6 nM	CC1(C)c2cnc(NC3CCOCC3)nc2CN1C(=O)NCc1ccc(Cl)c(F)c1 [compound 124, N-(4-chloro-3-fluorobenzyl)-5,5-dimethyl-2-((tetrahydro-2H-pyran-4-yl)amino)-5H-pyrrolo[3,4-d]pyrimidine-6(7H)-carboxamide]	–
1 nM	CC1(C)c2cnc(NC3CCOCC3)nc2CN1C(=O)NCc1ccc(Cl)c(Cl)c1 [compound 126, N-(3,4-dichlorobenzyl)-5,5-dimethyl-2-((tetrahydro-2H-pyran-4-yl)amino)-5H-pyrrolo[3,4-d]pyrimidine-6(7H)-carboxamide]	–
16 nM	Cc1cccc([C@@H](CO)NC(=O)N2Cc3nc(NC4CCOCC4)ncc3C2(C)C)c1 [compound 127, (S)-N-(2-hydroxy-1-(m-tolyl)ethyl)-5,5-dimethyl-2-((tetrahydro-2H-pyran-4-yl)amino)-5H-pyrrolo[3,4-d]pyrimidine-6(7H)-carboxamide]	–
9 nM	C[C@@H](NC(=O)N1Cc2nc(NC3CCOCC3)ncc2C1(C)C)c1cccc(S(C)(=O)=O)c1 [compound 131, (R)-5,5-dimethyl-N-(1-(3-(methylsulfonyl)phenyl)ethyl)-2-((tetrahydro-2H-pyran-4-yl)amino)-5H-pyrrolo[3,4-d]pyrimidine-6(7H)-carboxamide]	–
11 nM	CC1(C)c2cnc(NC3CCOCC3)nc2CN1C(=O)NCc1ccc(Oc2ccccc2)cc1 [compound 133, 5,5-dimethyl-N-(4-phenoxybenzyl)-2-((tetrahydro-2H-pyran-4-yl)amino)-5H-pyrrolo[3,4-d]pyrimidine-6(7H)-carboxamide]	–
39 nM	CC1(C)c2cnc(NC3CCOCC3)nc2CN1C(=O)NCc1ccc([S+]([O-])C(F)(F)F)cc1 (stereo not shown) [compound 134, 5,5-dimethyl-2-((tetrahydro-2H-pyran-4-yl)amino)-N-(4-((trifluoromethyl)sulfinyl)benzyl)-5H-pyrrolo[3,4-d]pyrimidine-6(7H)-carboxamide]	–
21 nM	C[C@@H](NC(=O)N1Cc2nc(NC3CCOCC3)ncc2C1(C)C)c1ccc(C#N)cc1 [compound 136, (R)-N-(1-(4-cyanophenyl)ethyl)-5,5-dimethyl-2-((tetrahydro-2H-pyran-4-yl)amino)-5H-pyrrolo[3,4-d]pyrimidine-6(7H)-carboxamide]	–
19 nM	CC1(C)c2cnc(NC3CCOCC3)nc2CN1C(=O)NCc1ccc(S(=O)(=O)C(F)(F)F)cc1 [compound 137, 5,5-dimethyl-2-((tetrahydro-2H-pyran-4-yl)amino)-N-(4-((trifluoromethyl)sulfonyl)benzyl)-5H-pyrrolo[3,4-d]pyrimidine-6(7H)-carboxamide]	–
73 nM	CC1(C)c2cnc(NC3CCOCC3)nc2CN1C(=O)N[C@H](CCO)c1ccccc1 [compound 138, (R)-N-(3-hydroxy-1-phenylpropyl)-5,5-dimethyl-2-((tetrahydro-2H-pyran-4-yl)amino)-5H-pyrrolo[3,4-d]pyrimidine-6(7H)-carboxamide]	–
14 nM	CC1(C)c2cnc(NC3CCOCC3)nc2CN1C(=O)N[C@@H]1CCN(Cc2ccccc2F)C1 [compound 146, (R)-N-(1-(2-fluorobenzyl)pyrrolidin-3-yl)-5,5-dimethyl-2-((tetrahydro-2H-pyran-4-yl)amino)-5H-pyrrolo[3,4-d]pyrimidine-6(7H)-carboxamide]	–
214 nM	CC1(C)c2cnc(NC3CCOCC3)nc2CN1C(=O)NC1CC(CO)CN(Cc2ccccc2F)C1 (stereo not shown) [compound 147, N-(1-(2-fluorobenzyl)-5-(hydroxymethyl)piperidin-3-yl)-5,5-dimethyl-2-((tetrahydro-2H-pyran-4-yl)amino)-5H-pyrrolo[3,4-d]pyrimidine-6(7H)-carboxamide]	–
